# Where a name gives a salt, the structure may show the parent alone. Read-outs that look alike come from different tables or passages of the source.
# Columns and labels:
# human GlyT1c = human GlyT1c (Homo sapiens (Human), UniProt P48067); experiment: [3H]-Glycine uptake into recombinant CHO cells expressing human GlyT1; format: cell-based
# Description: 1. [^3H]-Glycine uptake into recombinant CHO cells expressing human GlyT1: Human GlyT1c expressing recombinant hGlyT1c—5_CHO cells were plated at 20,000 cells per well in 96 well Cytostar-T scintillation microplates (Amersham Biosciences) and cultured to sub-confluency for 24 h. […] 80 μl HBSS buffer were added, followed by 10 μl inhibitor or vehicle (10% DMSO) and 10 μl [^3H]-glycine (TRK71, Amersham Biosciences) to a final concentration of 200 nM for initiation of glycine uptake. The plates were placed in a Wallac Microbeta (PerkinElmer) and continuously counted by solid phase scintillation spectrometry during up to 3 hours. Nonspecific uptake was determined in the presence of 10 μM Org24598.
# human GlyT1c transporter = human GlyT1c transporter (Homo sapiens (Human), UniProt P48067); experiment: Radioligand binding assay using recombinant CHO cell membranes expressing human GlyT1; settings: read-out: radioligand binding Kiapp
# human GlyT1c transporter, sequence (P48067 whole entry): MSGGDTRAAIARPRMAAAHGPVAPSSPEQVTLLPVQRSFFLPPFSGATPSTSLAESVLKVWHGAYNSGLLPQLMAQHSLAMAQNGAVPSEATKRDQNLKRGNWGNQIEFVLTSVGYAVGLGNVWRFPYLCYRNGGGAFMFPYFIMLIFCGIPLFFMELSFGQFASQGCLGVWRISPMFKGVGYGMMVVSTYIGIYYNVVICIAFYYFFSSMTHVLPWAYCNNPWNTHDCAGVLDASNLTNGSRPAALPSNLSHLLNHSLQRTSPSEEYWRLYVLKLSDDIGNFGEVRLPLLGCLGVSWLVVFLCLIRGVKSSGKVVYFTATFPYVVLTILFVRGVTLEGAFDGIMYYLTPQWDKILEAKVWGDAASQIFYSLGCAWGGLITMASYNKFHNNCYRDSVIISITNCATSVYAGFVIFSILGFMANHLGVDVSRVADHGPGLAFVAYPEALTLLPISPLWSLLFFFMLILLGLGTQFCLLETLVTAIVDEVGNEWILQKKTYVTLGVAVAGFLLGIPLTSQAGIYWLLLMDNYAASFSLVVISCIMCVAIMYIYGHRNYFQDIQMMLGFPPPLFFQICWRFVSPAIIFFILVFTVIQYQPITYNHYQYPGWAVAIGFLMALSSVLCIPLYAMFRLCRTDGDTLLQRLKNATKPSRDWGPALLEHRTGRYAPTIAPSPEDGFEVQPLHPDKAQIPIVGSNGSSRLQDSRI
# Excerpt: 2. Radioligand binding assays using recombinant CHO cell membranes expressing human GlyT1: […]
# [1] = hGlyT1c_5_CHO cells, 200 nM [3H]-glycine
# [2] = human GlyT1c-expressing CHO cell membranes
# human GlyT1c, sequence (P48067 whole entry): as above
Compound,IC50 (human GlyT1c; [1]) [µM],Ki (human GlyT1c transporter; [2]) [µM],IC50 (human GlyT1c) [µM],Ki (human GlyT1c transporter) [µM]
"Cn1cc(S(=O)(=O)NCCOc2ccc3c(c2)C(Cc2cccc(Cl)c2)C(N)CC3)cn1 (stereo not drawn) [Example 47, 1-Methyl-1H-pyrazole-4-sulfonic acid {2-[7-amino-8-(3-chloro-benzyl)-5,6,7,8-tetrahydronaphthalen-2-yloxy]-ethyl}-amide hydrochloride]",≤ 0.01,≤ 0.01,–,–
"Cn1cnc(S(=O)(=O)NCCOc2ccc3c(c2)C(Cc2cccc(Cl)c2)C(N)CC3)c1 (stereo not drawn) [Example 48, 1-Methyl-1H-imidazole-4-sulfonic acid {2-[7-amino-8-(3-chloro-benzyl)-5,6,7,8-tetrahydronaphthalen-2-yloxy]-ethyl}-amide hydrochloride]",≤ 0.01,≤ 0.01,–,–
"CCOC(=O)NC1CCc2ccc(OCCNS(=O)(=O)c3sc(C)nc3C)cc2C1Cc1cccc(Cl)c1 (stereo not drawn) [Example 49, {1-(3-Chloro-benzyl)-7-[2-(2,4-dimethyl-thiazole-5-sulfonylamino)-ethoxy]-1,2,3,4-tetrahydro-naphthalen-2-yl}-carbamic acid ethyl ester]",≤ 100,≤ 100,–,–
"CCOC(=O)NC1CCc2ccc(OCCNS(=O)(=O)c3cccs3)cc2C1Cc1cccc(Cl)c1 (stereo not drawn) [Example 50, {1-(3-Chloro-benzyl)-7-[2-(thiophene-2-sulfonylamino)-ethoxy]-1,2,3,4-tetrahydronaphthalen-2-yl}-carbamic acid ethyl ester]",≤ 10,≤ 1,–,–
"CCOC(=O)NC1CCc2ccc(OCCNS(=O)(=O)c3ccc(Cl)s3)cc2C1Cc1cccc(Cl)c1 (stereo not drawn) [Example 51, {1-(3-Chloro-benzyl)-7-[2-(5-chloro-thiophene-2-sulfonylamino)-ethoxy]-1,2,3,4-tetrahydronaphthalen-2-yl}-carbamic acid ethyl ester]",≤ 1000,≤ 100,–,–
"CCOC(=O)NC1CCc2ccc(OCCNS(=O)(=O)c3cnc(C)[nH]3)cc2C1Cc1cccc(Cl)c1 (stereo not drawn) [Example 52, {1-(3-Chloro-benzyl)-7-[2-(2-methyl-3H-imidazole-4-sulfonylamino)-ethoxy]-1,2,3,4-tetrahydro-naphthalen-2-yl}-carbamic acid ethyl ester]",≤ 10,≤ 10,–,–
"CCOC(=O)NC1CCc2ccc(OCCNS(=O)(=O)c3ccc(C)s3)cc2C1Cc1cccc(Cl)c1 (stereo not drawn) [Example 53, {1-(3-Chloro-benzyl)-7-[2-(5-methyl-thiophene-2-sulfonylamino)-ethoxy]-1,2,3,4-tetrahydro-naphthalen-2-yl}-carbamic acid ethyl ester]",≤ 1000,≤ 10,–,–
"CCOC(=O)NC1CCc2ccc(OCCNS(=O)(=O)c3cc(C)cs3)cc2C1Cc1cccc(Cl)c1 (stereo not drawn) [Example 54, {1-(3-Chloro-benzyl)-7-[2-(4-methyl-thiophene-2-sulfonylamino)-ethoxy]-1,2,3,4-tetrahydro-naphthalen-2-yl}-carbamic acid ethyl ester]",≥ 100,≤ 10,–,–
"CCCS(=O)(=O)NCCOc1ccc2c(c1)C(Cc1cccc(Cl)c1)C(N)CC2 (stereo not drawn) [Example 55, Propane-1-sulfonic acid {2-[7-amino-8-(3-chloro-benzyl)-5,6,7,8-tetrahydro-naphthalen-2-yloxy]-ethyl}-amide hydrochloride]",–,–,≤ 0.1,≤ 0.01
"NC1CCc2ccc(OCCNS(=O)(=O)c3cccs3)cc2C1Cc1cccc(Cl)c1 (stereo not drawn) [Example 56, Thiophene-2-sulfonic acid {2-[7-amino-8-(3-chloro-benzyl)-5,6,7,8-tetrahydro-naphthalen-2-yloxy]-ethyl}-amide]",≤ 1,≤ 0.1,–,–
"Cc1nc(C)c(S(=O)(=O)NCCOc2ccc3c(c2)C(Cc2cccc(Cl)c2)C(N)CC3)s1 (stereo not drawn) [Example 57, 2,4-Dimethyl-thiazole-5-sulfonic acid {2-[7-amino-8-(3-chloro-benzyl)-5,6,7,8-tetrahydronaphthalen-2-yloxy]-ethyl}-amide]",≤ 10,≤ 1,–,–
"Cc1ncc(S(=O)(=O)NCCOc2ccc3c(c2)C(Cc2cccc(Cl)c2)C(N)CC3)[nH]1 (stereo not drawn) [Example 58, 2-Methyl-3H-imidazole-4-sulfonic acid {2-[7-amino-8-(3-chloro-benzyl)-5,6,7,8-tetrahydronaphthalen-2-yloxy]-ethyl}-amide]",≤ 10,≤ 1,–,–
"NC1CCc2ccc(OCCNS(=O)(=O)c3ccc(Cl)s3)cc2C1Cc1cccc(Cl)c1 (stereo not drawn) [Example 59, 5-Chloro-thiophene-2-sulfonic acid {2-[7-amino-8-(3-chloro-benzyl)-5,6,7,8-tetrahydronaphthalen-2-yloxy]-ethyl}-amide]",≤ 10,≤ 1,–,–
"CCOC(=O)NC1CCc2ccc(OCCNS(=O)(=O)c3cc(C)sc3C)cc2C1Cc1cccc(Cl)c1 (stereo not drawn) [Example 60, {1-(3-Chloro-benzyl)-7-[2-(2,5-dimethyl-thiophene-3-sulfonylamino)-ethoxy]-1,2,3,4-tetrahydro-naphthalen-2-yl}-carbamic acid ethyl ester]",≥ 100,≤ 10,–,–
"CCOC(=O)NC1CCc2ccc(OCCNS(=O)(=O)c3cnn(CC)c3)cc2C1Cc1cccc(Cl)c1 (stereo not drawn) [Example 61, {1-(3-Chloro-benzyl)-7-[2-(1-ethyl-1H-pyrazole-4-sulfonylamino)-ethoxy]-1,2,3,4-tetrahydro-naphthalen-2-yl}-carbamic acid ethyl ester]",≤ 1000,≤ 10,–,–
"CCOC(=O)NC1CCc2ccc(OCCNS(=O)(=O)c3cnn(C)c3)cc2C1Cc1ccc(Cl)cc1Cl (stereo not drawn) [Example 62, {1-(2,4-Dichloro-benzyl)-7-[2-(1-methyl-1H-pyrazole-4-sulfonylamino)-ethoxy]-1,2,3,4-tetrahydro-naphthalen-2-yl}-carbamic acid ethyl ester]",≤ 1000,≤ 10,–,–
"CCOC(=O)NC1CCc2ccc(OCCNS(=O)(=O)c3cccs3)cc2C1Cc1ccc(Cl)cc1Cl (stereo not drawn) [Example 63, {1-(2,4-Dichloro-benzyl)-7-[2-(thiophene-2-sulfonylamino)-ethoxy]-1,2,3,4-tetrahydronaphthalen-2-yl}-carbamic acid ethyl ester]",≥ 100,≤ 10,–,–
"CCOC(=O)NC1CCc2ccc(OCCNS(=O)(=O)c3ccc(C)s3)cc2C1Cc1ccc(Cl)cc1Cl (stereo not drawn) [Example 64, {1-(2,4-Dichloro-benzyl)-7-[2-(5-methyl-thiophene-2-sulfonylamino)-ethoxy]-1,2,3,4-tetrahydro-naphthalen-2-yl}-carbamic acid ethyl ester]",≤ 1000,≤ 10,–,–
"CCOC(=O)NC1CCc2ccc(OCCNS(=O)(=O)CC)cc2C1Cc1cccc(Cl)c1 (stereo not drawn) [Example 65, [1-(3-Chloro-benzyl)-7-(2-ethanesulfonylamino-ethoxy)-1,2,3,4-tetrahydro-naphthalen-2-yl]-carbamic acid ethyl ester]",≤ 100,≥ 10,–,–
"CCn1cc(S(=O)(=O)NCCOc2ccc3c(c2)C(Cc2cccc(Cl)c2)C(N)CC3)cn1 (stereo not drawn) [Example 66, 1-Ethyl-1H-pyrazole-4-sulfonic acid {2-[7-amino-8-(3-chloro-benzyl)-5,6,7,8-tetrahydronaphthalen-2-yloxy]-ethyl}-amide hydrochloride]",–,–,≤ 1,≤ 0.1
"Cc1csc(S(=O)(=O)NCCOc2ccc3c(c2)C(Cc2cccc(Cl)c2)C(N)CC3)c1 (stereo not drawn) [Example 67, 4-Methyl-thiophene-2-sulfonic acid {2-[7-amino-8-(3-chloro-benzyl)-5,6,7,8-tetrahydronaphthalen-2-yloxy]-ethyl}-amide hydrochloride]",≤ 1,≤ 0.1,–,–

# Reference: patent US9067871B2, “Aminotetraline derivatives, pharmaceutical compositions containing them, and their use in therapy” (ABBVIE DEUTSCHLAND GMBH & CO KG, priority 2009, dated 2015)
